Measurements as given in patent publication US20260223853A1, “PESTICIDALLY ACTIVE HETEROCYCLIC DERIVATIVES WITH SULFUR CONTAINING SUBSTITUENTS” (SYNGENTA CROP PROTECTION AG, priority 2023, published 2026).

Experiments:
Assay type in all cases: in vivo
[1] = tested on: Spodoptera littoralis (Egyptian Cotton Leaf Worm); test: Example B7: Activity against Spodoptera littoralis (Egyptian cotton leaf worm), cotton leaf discs, L1 larvae; conditions: foliar, 72 h, application rate of 200 ppm, 3 days after infestation, in comparison to untreated samples, read-out: control (at least one of mortality, anti-feedant effect, growth inhibition)
Protocol: Example B7: Activity Against Spodoptera littoralis (Egyptian Cotton Leaf Worm)
Cotton leaf discs were placed onto agar in 24-well microtiter plates and sprayed with aqueous test solutions prepared from 10′000 ppm DMSO stock solutions. After drying the leaf discs were infested with five L1 larvae. The samples were assessed for mortality, anti-feeding effect, and growth inhibition in comparison to untreated samples 3 days after infestation. Control of Spodoptera littoralis by a test sample is given when at least one of the categories mortality, anti-feedant effect, and growth inhibition is higher than the untreated sample.

[2] = tested on: Euschistus heros (Neotropical Brown Stink Bug); test: Example B3: Activity against Euschistus heros (neotropical brown stink bug), soybean leaves, N2 nymphs; conditions: 120 h, application rate of 200 ppm, 5 days after infestation, in comparison to untreated samples, read-out: effect in at least one of the two categories (mortality or growth inhibition)
Protocol: Example B3: Activity Against Euschistus heros (Neotropical Brown Stink Bug)
Soybean leaves on agar in 24-well microtiter plates were sprayed with aqueous test solutions prepared from 10′000 ppm DMSO stock solutions. After drying the leaves were infested with N2 nymphs. The samples were assessed for mortality and growth inhibition in comparison to untreated samples 5 days after infestation.

[3] = tested on: Diabrotica balteata (Corn Root Worm); test: Example B2: Activity against Diabrotica balteata (corn root worm), maize sprouts, L2 larvae; conditions: 96 h, application rate of 200 ppm, 4 days after infestation, in comparison to untreated samples, read-out: effect in at least one of the two categories (mortality or growth inhibition)
Protocol: Example B2: Activity Against Diabrotica balteata (Corn Root Worm)
Maize sprouts placed onto an agar layer in 24-well microtiter plates were treated with aqueous test solutions prepared from 10′000 ppm DMSO stock solutions by spraying. After drying, the plates were infested with L2 larvae (6 to 10 per well). The samples were assessed for mortality and growth inhibition in comparison to untreated samples 4 days after infestation.

[4] = tested on: Myzus persicae (Green peach aphid); test: Example B4: Activity against Myzus persicae (green peach aphid), feeding/contact activity, sunflower leaf discs; conditions: foliar, 144 h, application rate of 200 ppm, 6 days after infestation
Protocol: Example B4: Activity against Myzus persicae (Green peach aphid) Feeding/Contact activity Sunflower leaf discs were placed onto agar in a 24-well microtiter plate and sprayed with aqueous test solutions prepared from 10′000 ppm DMSO stock solutions. After drying, the leaf discs were infested with an aphid population of mixed ages. The samples were assessed for mortality 6 days after infestation.

[5] = tested on: Chilo suppressalis (Striped Rice Stemborer); test: Example B1: Activity against Chilo suppressalis (striped rice stemborer), artificial diet, L2 larvae; conditions: 144 h, application rate of 200 ppm, 6 days after infestation, in comparison to untreated samples, read-out: control (at least one of mortality, anti-feedant effect, growth inhibition)
Protocol: Example B1: Activity Against Chilo suppressalis (Striped Rice Stemborer)
24-well microtiter plates with artificial diet were treated with aqueous test solutions prepared from 10′000 ppm DMSO stock solutions by pipetting. After drying, the plates were infested with L2 larvae (6-8 per well). The samples were assessed for mortality, anti-feeding effect, and growth inhibition in comparison to untreated samples 6 days after infestation. Control of Chilo suppressalis by a test sample is given when at least one of the categories mortality, anti-feedant effect, and growth inhibition is higher than the untreated sample.

[6] = tested on: Plutella xylostella (Diamond Back Moth); test: Example B6: Activity against Plutella xylostella (diamond back moth), artificial diet, eggs; conditions: 192 h, application rate of 200 ppm, 8 days after infestation, in comparison to untreated samples, read-out: effect in at least one of the two categories (mortality or growth inhibition)
Protocol: Example B6: Activity Against Plutella xylostella (Diamond Back Moth)
24-well microtiter plates with artificial diet were treated with aqueous test solutions prepared from 10′000 ppm DMSO stock solutions by pipetting. After drying, Plutella eggs were pipetted through a plastic stencil onto a gel blotting paper and the plate was closed with it. The samples were assessed for mortality and growth inhibition in comparison to untreated samples 8 days after infestation. The following compounds gave an effect of at least 80% in at least one of the two categories (mortality or growth inhibition) at an application rate of 200 ppm: P.1, P.2, P.3, P.4, P.5, P.6, P.7, P.8, P.9, P.10, P.11, P.12.

[7] = tested on: Myzus persicae (Green peach aphid); test: Example B5: Activity against Myzus persicae (green peach aphid), systemic activity, pea seedlings; conditions: 144 h, test rate of 24 ppm, 6 days after placing seedlings into test solutions
Protocol: Example B5: Activity Against Myzus persicae (Green Peach Aphid) Systemic Activity
Roots of pea seedlings infested with an aphid population of mixed ages were placed directly into aqueous test solutions prepared from 10′000 DMSO stock solutions. The samples were assessed for mortality 6 days after placing seedlings into test solutions.

CCS(=O)(=O)c1cc(C2(C#N)CC2)cnc1N1CCc2c(ccc3c2OC(F)(F)O3)C1=O [P.6, 1-[6-(2,2-difluoro-6-oxo-8,9-dihydro-[1,3]dioxolo[4,5-f]isoquinolin-7-yl)-5-ethylsulfonyl-3-pyridyl]cyclopropane-carbonitrile]
≥ 80%: control at 200 ppm [1] | percent effect (mortality or growth inhibition) at 200 ppm [2] | percent effect (mortality or growth inhibition) at 200 ppm [3] | mortality at 200 ppm [4] | percent control (mortality, anti-feedant effect or growth inhibition) at 200 ppm [5] | percent effect (mortality or growth inhibition) at 200 ppm [6]

CCS(=O)(=O)c1c(N2CCc3nc(C(F)(F)F)ccc3C2=O)nc2cc(C(F)(F)F)ccn12 [P.1, 6-[3-ethylsulfonyl-7-(trifluoromethyl)imidazo[1,2-a]pyridin-2-yl]-2-(trifluoromethyl)-7,8-dihydro-1,6-naphthyridin-5-one]
≥ 80%: control at 200 ppm [1] | percent effect (mortality or growth inhibition) at 200 ppm [3] | mortality at 200 ppm [4] | percent control (mortality, anti-feedant effect or growth inhibition) at 200 ppm [5] | percent effect (mortality or growth inhibition) at 200 ppm [6]

CCS(=O)(=O)c1cc(C2(C#N)CC2)cnc1N1CCc2nc(Cl)ccc2C1=O [P.8, 1-[6-(2-chloro-5-oxo-7,8-dihydro-1,6-naphthyridin-6-yl)-5-ethylsulfonyl-3-pyridyl]cyclopropane-carbonitrile]
≥ 80%: control at 200 ppm [1] | mortality at 24 ppm [7] | percent effect (mortality or growth inhibition) at 200 ppm [6]

CCS(=O)(=O)c1cc(C2(C#N)CC2)cnc1N1CCc2nc(OCC(Cl)(Cl)Cl)ccc2C1=O [P.11, 1-[5-ethylsulfonyl-6-[5-oxo-2-(2,2,2-trichloroethoxy)-7,8-dihydro-1,6-naphthyridin-6-yl]-3-pyridyl]cyclopropane-carbonitrile]
≥ 80%: control at 200 ppm [1] | percent control (mortality, anti-feedant effect or growth inhibition) at 200 ppm [5] | percent effect (mortality or growth inhibition) at 200 ppm [6]

CCS(=O)(=O)c1cc(C2(C#N)CC2)cnc1N1CCc2cc(C(F)(F)F)ccc2C1=O [P.2, 1-[5-ethylsulfonyl-6-[1-oxo-6-(trifluoromethyl)-3,4-dihydroisoquinolin-2-yl]-3-pyridyl]cyclopropane-carbonitrile]
≥ 80%: percent effect (mortality or growth inhibition) at 200 ppm [2] | percent effect (mortality or growth inhibition) at 200 ppm [3] | mortality at 200 ppm [4] | percent control (mortality, anti-feedant effect or growth inhibition) at 200 ppm [5] | percent effect (mortality or growth inhibition) at 200 ppm [6]

CCS(=O)(=O)c1cc(C2(C#N)CC2)cnc1N1CCc2nc(C(F)(F)F)ccc2C1=O [P.3, 1-[5-ethylsulfonyl-6-[5-oxo-2-(trifluoromethyl)-7,8-dihydro-1,6-naphthyridin-6-yl]-3-pyridyl] cyclopropane-carbonitrile]
≥ 80%: control at 200 ppm [1] | percent effect (mortality or growth inhibition) at 200 ppm [2] | percent effect (mortality or growth inhibition) at 200 ppm [3] | mortality at 200 ppm [4] | percent control (mortality, anti-feedant effect or growth inhibition) at 200 ppm [5] | mortality at 24 ppm [7] | percent effect (mortality or growth inhibition) at 200 ppm [6]

CCS(=O)(=O)c1cc(C2(C#N)CC2)cnc1N1CCc2nc(OCC(Cl)(Cl)C(F)(F)F)ccc2C1=O [P.13, 1-[6-[2-(2,2-dichloro-3,3,3-trifluoro-propoxy)-5-oxo-7,8-dihydro-1,6-naphthyridin-6-yl]-5-ethylsulfonyl-3-pyridyl]cyclopropane-carbonitrile]
≥ 80%: control at 200 ppm [1] | percent control (mortality, anti-feedant effect or growth inhibition) at 200 ppm [5]

CCS(=O)(=O)c1cc(C2(C#N)CC2)cnc1N1CCc2cc(OC(F)(F)F)ccc2C1=O [P.4, 1-[5-ethylsulfonyl-6-[1-oxo-6-(trifluoromethoxy)-3,4-dihydroisoquinolin-2-yl]-3-pyridyl] cyclopropane-carbonitrile]
≥ 80%: control at 200 ppm [1] | percent effect (mortality or growth inhibition) at 200 ppm [2] | percent effect (mortality or growth inhibition) at 200 ppm [3] | mortality at 200 ppm [4] | percent control (mortality, anti-feedant effect or growth inhibition) at 200 ppm [5] | percent effect (mortality or growth inhibition) at 200 ppm [6]

CCS(=O)(=O)c1cc(C2(C#N)CC2)cnc1N1CCc2nc(C(F)(F)C(F)(F)F)ccc2C1=O [P.5, 1-[5-ethylsulfonyl-6-[5-oxo-2-(1,1,2,2,2-pentafluoroethyl)-7,8-dihydro-1,6-naphthyridin-6-yl]-3-pyridyl] cyclopropane-carbonitrile]
≥ 80%: control at 200 ppm [1] | percent effect (mortality or growth inhibition) at 200 ppm [2] | percent effect (mortality or growth inhibition) at 200 ppm [3] | percent control (mortality, anti-feedant effect or growth inhibition) at 200 ppm [5] | percent effect (mortality or growth inhibition) at 200 ppm [6]

CCS(=O)(=O)c1cc(C2(C#N)CC2)cnc1N1CCc2nc(OCC(F)(F)C(F)(F)F)ccc2C1=O [P.12, 1-[5-ethylsulfonyl-6-[5-oxo-2-(2,2,3,3,3-pentafluoropropoxy)-7,8-dihydro-1,6-naphthyridin-6-yl]-3-pyridyl]cyclopropane-carbonitrile]
≥ 80%: control at 200 ppm [1] | percent effect (mortality or growth inhibition) at 200 ppm [3] | mortality at 200 ppm [4] | percent control (mortality, anti-feedant effect or growth inhibition) at 200 ppm [5] | percent effect (mortality or growth inhibition) at 200 ppm [6]

CCS(=O)(=O)c1cc(C2(C#N)CC2)cnc1N1CCc2nc(OCC(F)(F)C(F)F)ccc2C1=O [P.10, 1-[5-ethylsulfonyl-6-[5-oxo-2-(2,2,3,3-tetrafluoropropoxy)-7,8-dihydro-1,6-naphthyridin-6-yl]-3-pyridyl] cyclopropane-carbonitrile]
≥ 80%: control at 200 ppm [1] | percent effect (mortality or growth inhibition) at 200 ppm [3] | mortality at 200 ppm [4] | percent control (mortality, anti-feedant effect or growth inhibition) at 200 ppm [5] | percent effect (mortality or growth inhibition) at 200 ppm [6]

CCS(=O)(=O)c1cc(C2(C#N)CC2)cnc1N1CCc2nc(OC3CC3)ccc2C1=O [P.7, 1-[6-[2-(cyclopropoxy)-5-oxo-7,8-dihydro-1,6-naphthyridin-6-yl]-5-ethylsulfonyl-3-pyridyl]cyclopropane-carbonitrile]
≥ 80%: control at 200 ppm [1] | percent effect (mortality or growth inhibition) at 200 ppm [3] | mortality at 200 ppm [4] | percent control (mortality, anti-feedant effect or growth inhibition) at 200 ppm [5] | mortality at 24 ppm [7] | percent effect (mortality or growth inhibition) at 200 ppm [6]

CCS(=O)(=O)c1cc(C2(C#N)CC2)cnc1N1CCc2nc(OCC(F)(F)Cl)ccc2C1=O [P.9, 1-[6-[2-(2-chloro-2,2-difluoro-ethoxy)-5-oxo-7,8-dihydro-1,6-naphthyridin-6-yl]-5-ethylsulfonyl-3-pyridyl]cyclopropane-carbonitrile]
≥ 80%: control at 200 ppm [1] | percent effect (mortality or growth inhibition) at 200 ppm [2] | percent effect (mortality or growth inhibition) at 200 ppm [3] | mortality at 200 ppm [4] | percent control (mortality, anti-feedant effect or growth inhibition) at 200 ppm [5] | percent effect (mortality or growth inhibition) at 200 ppm [6]
